As for `Cc1n[nH]c2c1c(=O)n(-c1ccccc1)c1ncccc21`, the melting point was > 300 °C.
Then `C=CCN1C(=O)N(CC=C)[C@@H](C(=O)O)[C@H]1C(=O)O`, with 161 to 163 °C.
As for `COc1cc(C(C)C)c(Oc2cnc(NC(CO)CO)nc2N)cc1I`, the figure is 158 to 159 °C.
Then `CCOc1cc(CCl)ccc1OCc1nc(-c2ccccc2)oc1C`, with 138 to 139 °C.
`CSCc1nnnn1C1CCN(c2ccc(N3C[C@H](CNC(C)=O)OC3=O)cc2F)CC1`: the melting point is 118 to 119 °C.
Then `C#CCn1c(-c2ccccc2)nc(CC)c(O)c1=O`, with 152 to 154 °C; and `CCSc1cc(C)nc(SCC)c1NC(=O)CN1CCN(CCSc2nc3c(C)c(Cl)cc(C(C)C)c3o2)CC1`, with 120 to 122 °C; and `CC(C)(CO)NS(=O)(=O)c1cccc(NC(=O)c2cnn3c(C4CC4)cc(-c4ccc(C(F)(F)F)cc4)nc23)c1`, with 228 to 230 °C.
`COC(=O)c1ccccc1-c1nc(COc2ccc(COc3nn(-c4ccccc4)cc3C=O)cc2OC)c(C)o1`: the melting point was in the range of 134 to 135 °C.
Then `CN(C)C1(c2cccc(O)c2)CCC(=O)CC1`, with 175 to 177 °C.
Then `O=[N+]([O-])c1ccc(Oc2ccc(S(=O)(=O)c3ccc(Oc4ccc([N+](=O)[O-])c(O)c4)cc3)cc2)cc1O`, with 220 to 222 °C; and `CCC1CC(=O)C2(C)CCC3c4ccc(OC)cc4CCC3C12` (stereo unspecified), with 125 to 129 °C.
Regarding `C=Cc1ncc2c(c1COC)c1c(OCc3ccccc3)cccc1n2S(=O)(=O)c1ccc(C)cc1`, the melting point is 141 to 143 °C.
In the case of `C=C(CN(C)C)C(O)c1ncc2c(c1O)COC2c1ccccc1` (stereo unspecified), the melting point was in the range of 210 to 215 °C.
Then `Cc1ccc(NC(=O)c2cccc(N(C)C)c2)cc1NC(=O)c1ccccc1O`, with 136 to 139 °C; and `Cc1cccc(OCCF)c1S(N)(=O)=O`, with 103 °C.
Then `COc1cc2c3nn(-c4ccc(Cl)cc4)c(=O)c-3c[nH]c2c(OC)n1`, with 318 to 321 °C; and `Cc1noc(NS(=O)(=O)c2ccccc2-c2ccc(-c3ncco3)cc2CN(C)C(=O)C(C)(C)c2ccccc2)c1C`, with 130 to 138 °C.
Then `Cc1ccc2c(c1)c1c(n2Cc2ccccc2)CCCC1=O`, with 179 to 180 °C; and `COc1ccc(-c2cc(=O)c3c(OC)cc(OC)cc3o2)cc1`, with 156 °C.
For `CC(C)(C)c1ccccc1COc1ccc(N)cn1`, the melting point lay in the range of 147 to 149 °C.
As for `CCc1cc2c(cc1O)CCC1C2CCC2(C)C(CCO[Si](c3ccccc3)(c3ccccc3)C(C)(C)C)CCC12` (stereo unspecified), the figure is 134 to 135 °C; as for `CNC(=O)C(=NO)c1ccccc1Oc1ccccc1`, 183 to 184 °C; as for `NC(=O)c1cccc(-c2cccc3cc(Cc4cccc(C(F)(F)F)c4)sc23)c1`, 153 to 154 °C.
Regarding `O=c1n(C2CCCCC2)c2cc(Cl)ccc2n1S(=O)(=O)c1ccc([N+](=O)[O-])cc1`, the melting point was determined as 162 °C.
Then `CNC(=O)c1cccc(NC(=O)Cc2c(O)ccc3ccccc23)c1`, with 229 to 230 °C.
For `CCCCCCCCN(CCCCCCCC)c1nc(Nc2ccc3nc(S)sc3c2)nc(N(CCCCCCCC)CCCCCCCC)n1`, the melting point fell in the range of 81 to 83 °C.
Then `CC(NS(=O)(=O)c1ccc(Cl)cc1)P(=O)(OCCCl)OCCCl` (stereo unspecified), with 94.5 to 98 °C; and `CC(C)=CCOC(C)C1CC=C2C3=C(CCC21C)C1(C)CCC(OC(=O)CCC(=O)O)C(C)(C)C1CC3` (stereo unspecified), with 60 to 67 °C.
Then `CCC(=O)NCC=C1CCc2ccc3nn(C)cc3c21`, with 185 to 187 °C.
Then `O=C(Nc1cc(Cl)cc(Cl)c1)c1ccccc1O`, with 218 to 219 °C; and `COC1=CC(=O)c2c(cc(Br)c(O)c2Br)C1=O`, with 224 to 228 °C.
As for `O=C(Cl)c1sc2cc(OCc3ccccc3)ccc2c1Cl`, the melting point was 132 to 134 °C.
For the compound `O=S(=O)(Nc1ccc2c(OCc3csc(-c4ccc(Cl)nc4)n3)cccc2c1)C(F)(F)F`, the melting point was in the range of 154 to 156 °C.
As for `COc1cc(OCc2ccccn2)ccc1C=CC(=O)CC(C)=O`, the figure is 81 to 82 °C; as for `CN(Cc1ccccc1)c1nc(=O)c2cc(C(F)(F)F)cc([N+](=O)[O-])c2s1`, 120 to 124 °C.
Then `O=C(O)C(CSc1ncccn1)CS(=O)(=O)c1ccc(-c2ccc(Cl)cc2)cc1` (stereo unspecified), with 166 to 168 °C.
Then `N#Cc1nn(-c2c(Cl)cc(C(F)(F)F)cc2Cl)c(N)c1C(=O)CBr`, with 190 to 192 °C; and `CC(C)(Nc1ccc(Cl)cc1[N+](=O)[O-])C(=O)O`, with 162 to 164 °C.
Consider `CC1(C)C=CC(=Cc2ccc(F)cc2)C1(O)Cn1ccnc1` (stereo unspecified), for which the melting point amounted to 172 °C.
Turning to `COc1cc2c(Cl)c(C(=O)Cl)sc2cc1OCc1ccccc1`, the melting point is 144 to 152 °C.
As for `COc1cccc2c1CCNCC2`, the figure is 44.3 to 45 °C.
As for `CCCCc1nc(C)n2nc(S)nc2c1Cc1ccc(-c2ccccc2)c(-c2nnn[nH]2)c1`, the figure is 135 to 137 °C; as for `COCc1c(C=NO)nc(Oc2nccc3ccccc23)c2[nH]c3ccccc3c12`, 107 to 112 °C.
`CCCOc1ccc2c(c1)[C@H](c1ccc(OC)cc1OCC(=O)O)[C@@H](CC(=O)O)[C@@H]2c1ccc2c(c1)OCO2` (racemic) showed a melting point of 210 to 212 °C.
Then `CC(C)c1cc(C(O)(C(F)(F)F)C(F)(F)F)cc(C(C)C)c1NCC(=O)O`, with 130 to 132 °C.
For the compound `CN1C2CCC1CC(O)(c1ccc(Cl)c(Cl)c1)C2` (stereo unspecified), the melting point lay within 153 to 154 °C.
Consider `CC(=O)Nc1ccc(C=CC2CSC(=O)NN2)cc1` (stereo unspecified), for which the melting point was in the range of 235 to 240 °C.
As for `CCc1[nH]n(C2CCCC2)c2nc(Cc3ccc(OCCN4CCOCC4)cc3)nc(=O)c1-2`, the figure is 136 to 137 °C.
Then `CNN(NC)C(=O)Nc1cccc2c1C(=O)c1c-2n[nH]c1-c1cc(C)sc1C`, with 252 °C.
As for `O=c1c(N2CCCCC2)nc2ccccc2n1-c1ccc(Cl)cc1`, the figure is 184 to 185 °C.
As to `O=c1ccn([C@H]2[C@H](O)[C@H](O)[C@@H](CO)C23CC3)c(=O)[nH]1`, the melting point was 114 to 116 °C.
As for `Cc1c(-c2ccccc2)oc2c(CC(=O)O)cccc2c1=O`, the figure is 191 to 192 °C.
Then `Fc1ccc2cc(C3=CCNCC3)sc2c1`, with 155 to 157 °C; and `C[Si](C)(C)c1cc(CCC(=O)O)co1`, with 25 °C; and `Fc1cccc(CN2CCN=C2S)c1`, with 186 to 188 °C.
Then `COC(=O)c1[nH]c2cc(C)c(C)cc2c1-c1ccc(O)cc1`, with 247 to 248 °C; and `Nc1cc(C(=O)O)nn1-c1c(Cl)cc(C(F)(F)F)cc1Cl`, with 213 °C.
In turn, `OCc1cnoc1-c1ccc(OC(F)(F)F)cc1` gave a melting point of 45 to 46 °C.
`CC(C)CNC(=O)c1ccc(C(=O)O)cc1[N+](=O)[O-]` displayed a melting point of 255 to 257 °C.
The compound `CCOC(=O)c1cn(CC)c2cc(-c3csc(C(C)NC(C)=O)n3)c(F)cc2c1=O` (stereo unspecified) came in with a melting point of 236 to 238 °C.
As for `Cn1c(=S)c(-c2cccs2)nc2ccccc21`, the figure is 113 °C.
As for `CCOC(=O)COc1cc(O)ccc1C(=O)c1ccc(OCc2nc(-c3ccccc3)oc2C)cc1`, the figure is 184 to 186 °C; as for `OCc1nc2n(c1CO)-c1ccc(Cl)cc1C(c1ccccc1F)=NC2`, 222 °C; as for `O=C(Cc1ccccc1Nc1c(Cl)cccc1Cl)OCI`, 66 °C.
Then `COc1cc2c(cc1Nc1ncc(Cl)c(Nc3ccccc3OCC#N)n1)CCOC(=O)N2C`, with 245 to 247 °C; and `CN(C)CN=c1[nH]c2cnccc2s1`, with 125 to 127 °C; and `CCOC(=O)CNC(=O)CC(O)CBr` (stereo unspecified), with 59 to 61 °C.
Regarding `CC(C)(C)OC(=O)c1ccc(C=Cc2cnc3nc(N)nc(N)c3c2)cc1`, the melting point was > 350 °C.
Then `Cc1c(C=NO)c2cc(Br)ccc2n1-c1ccc(O)cc1`, with 209 to 211 °C.
Then `CCOc1nc2nc(SC)nn2c2c1cnc1c2cnn1CC`, with 209 to 211 °C.
Then `CCOC(=O)CNC(=O)n1nc(Oc2cccc(C(F)(F)F)c2)cc1C`, with 66 to 68 °C.
For `Cc1ccccc1-c1nc(NCCN(C)C)ncc1N(C)C(=O)C(C)(C)c1cc(C(F)(F)F)cc(C(F)(F)F)c1`, the melting point was 143 to 144 °C.
Then `CCOc1cccc(NCCSCc2[nH]cnc2C)n1`, with 172 °C; and `CCCc1nc2c(c(C)c(C)n3nnnc23)n1CC(C)(C)NC(=O)c1ccccc1`, with 221 to 223 °C; and `CCCCCC1CCC(c2ccc(C(=O)O)cc2)CC1` (stereo unspecified), with 30 °C.
Then `CC12CC(F)C3c4ccc(O)cc4CC(CCCCCN4CCCC4CSCCCC(F)(F)C(F)(F)F)C3C1CCC2O` (stereo unspecified), with 174 to 176 °C; and `O=S(=O)(/C=C/c1ccc(Br)cc1)CS(=O)(=O)/C=C/c1ccc(Br)cc1`, with 213 to 215 °C; and `CCOC(=O)c1ncn(-c2ccn(C)n2)c1N`, with 168 to 170 °C.
Then `Cn1c(-c2cccc(C(F)(F)F)c2)cc(=O)n(-c2ccc(Cl)cc2F)c1=O`, with 139 to 142 °C; and `Cc1nc2c(OCc3c(N)cccc3Cl)cccn2c1Br`, with 177 to 178 °C.
The compound `O=S(CCCCCCOc1ccc(C2=C(c3ccccc3)CCCc3cc(O)ccc32)cc1)Cc1ccccn1` (stereo unspecified) displayed a melting point of 80 °C.
Then `CC(C)n1nc(-c2nc(C#Cc3ccccn3)c(N)nc2-c2ccccc2)ccc1=O`, with 246 to 247 °C.
Then `CCOC(=O)Cc1c(C(F)(F)F)nc(C)[nH]c1=O`, with 108 to 110 °C; and `CC(=O)NC[C@H]1CN(c2ccc(N3CCN(C(=S)CN)CC3)c(F)c2)C(=O)O1`, with 202 to 204 °C; and `O=C(O)[C@@H]1CCN2C(=O)CC[C@H](N3C(=O)c4ccccc4C3=O)C(=O)N12`, with 232 to 233 °C.

These data come from a melting point compilation (Tetko et al.; mined from patent text by program, amines drawn as free bases though some values may be those of a salt).
